Counter-ions that a name gives are not always drawn.
How the values were obtained:
Type in all cases: cell-based
human CD3+ T cells = test: T cell assay (IL2 in supernatant, anti-CD3/anti-CD28 stimulation); conditions: for EC50: T-cell, 4 hours anti-CD3/anti-CD28, read-out: IL-2 EC50
Experimental: Cryo-preserved human CD3+ T cells are recovered in warm T cell media overnight. […] T cells are then left in a humidified incubator at 37° C. for 1 hour. […] Anti-CD28 antibody in T cell media is also added to the cells by Bravo liquid handler at 5 ug/mL or 1 μg/mL in a donor dependent manner. T cells are then incubated in a humidified incubator at 37° C. for 4 hours. […] IL2 is detected using a IL2 MultiCyt® QBeads® kit on an iQue Screener flow cytometer (Sartorius). Briefly, capture beads are diluted by 50× in the supplied capture bead diluent. […] Using a Bravo liquid handler, 10 ul cell culture supernatant is transferred to the v-bottom plate with diluted capture beads. The plate is then sealed in foil and incubate at room temperature on a plate shaker set to 900 rpm for 1 hour. At the end of incubation, 10 μL per well of the supplied detection reagent is added to the wells using a ThermoFisher multichannel pipette. The plate is then sealed in foil and incubate again at room temperature on a plate shaker set to 900 rpm for 2 hours before detection by iQue Screener. iQue Screener flow cytometer uses pre-configured analysis template supplied with the IL2 MultiCyt® QBeads® kit to detect IL2 in each sample wells.

pSLP76 [1] = test: Flow pSLP76
pSLP76 [2] = test: WB pSLP76

| SMILES | Max IL-2 conc (human CD3+ T cells) [µM] | EC50 (human CD3+ T cells) [nM] | EC50 (pSLP76 [1]) [nM] | EC50 (pSLP76 [2]) [nM] |
| --- | --- | --- | --- | --- |
| CNc1nc(Nc2ccc(CN3C[C@H]4C[C@@H]3CO4)cc2F)c(C(N)=O)nc1-c1cncc2c1ncn2C [Example 146, 3-[2-Fluoro-4-[[(1R,4R)-2-oxa-5-azabicyclo[2.2.1]heptan-5-yl]methyl]anilino]-5-(methylamino)-6-(3-methylimidazo[4,5-c]pyridin-7-yl)pyrazine-2-carboxamide] | 0.37 | 23 | 65 | – |
| CNc1nc(Nc2ccc(CN3CC4(COC4)C3)cc2Cl)c(C(N)=O)nc1-c1cncc2c1ncn2C [Example 148, 3-[2-Chloro-4-(2-oxa-6-azaspiro[3.3]heptan-6-ylmethyl)anilino]-5-(methylamino)-6-(3-methylimidazo[4,5-c]pyridin-7-yl)pyrazine-2-carboxamide formate salt] | 3.33 | 325 | 1080 | – |
| CNc1nc(Nc2cn(C3CCN(C)CC3)nc2C)c(C(N)=O)nc1-c1cccc2c1ncn2C [Example 206, 5-(Methylamino)-6-(1-methylbenzimidazol-4-yl)-3-[[3-methyl-1-(1-methyl-4-piperidyl)pyrazol-4-yl]amino]pyrazine-2-carboxamide formate salt] | 1.11 | 91 | 440 | 320 |
| CNc1nc(Nc2cn(C(C)(C)C#N)nc2C)c(C(N)=O)nc1-c1cncc2c1ncn2C [Example 211, 3-[[1-(1-Cyano-1-methyl-ethyl)-3-methyl-pyrazol-4-yl]amino]-5-(methylamino)-6-(3-methylimidazo[4,5-c]pyridin-7-yl)pyrazine-2-carboxamide] | 3.33 | 276 | – | 340 |
| Cc1nn(CC(F)(F)F)cc1Nc1nc(C2CC2)c(-c2cncc3c2ncn3C)nc1C(N)=O [Example 213, 5-Cyclopropyl-6-(3-methylimidazo[4,5-c]pyridin-7-yl)-3-[[3-methyl-1-(2,2,2-trifluoroethyl)pyrazol-4-yl]amino]pyrazine-2-carboxamide] | – | 53 | 50 | – |
| Cc1nn(C2COC2)cc1Nc1nc(C2CC2)c(-c2cncc3c2ncn3C)nc1C(N)=O [Example 224, 5-Cyclopropyl-6-(3-methylimidazo[4,5-c]pyridin-7-yl)-3-[[3-methyl-1-(oxetan-3-yl)pyrazol-4-yl]amino]pyrazine-2-carboxamide] | 3.33 | 120 | – | – |

— US20240374606A1, “SUBSTITUTED PYRAZINE-2-CARBOXAMIDES AS HPK1 INHIBITORS FOR THE TREATMENT OF CANCER” (ASTRAZENECA AB, priority 2021, published 2024)
